# Reference: patent US12642271B2, “Active compound combinations comprising a (thio)carboxamide derivative and a fungicidal compound” (Bayer CropScience Aktiengesellschaft, priority 2011, dated 2026)
# Values joined by “and” are separate entries in the source; they are usually repeats but may differ in a detail not shown here. Equal values may be shown once. Read-outs that look alike come from different tables or passages of the source.
# Key:
# [1] = test system: Phytophthora infestans; experiment: whole plant or invertebrate; assay type: in vivo
# [2] = test system: Sphaerotheca fuliginea; experiment: Sphaerotheca test (cucumbers)/preventive; assay type: in vivo; details: for pest or weed control at 0.25 ppm / pest or weed control at 0.5 ppm: Podosphaera fuliginea, 168 h, read-out: Efficacy in % found; for pest or weed control at 0.25 ppm: 0.25 ppm a.i.; for Efficacy in % found: Table 4d
# [3] = test system: Septoria tritici; experiment: Septoria tritici-test (wheat)/preventive; assay type: in vivo; details: preventive, evaluated 21 days after inoculation
# [4] = test system: Venturia inaequalis; experiment: Venturia test (apples)/preventive; details: for pest or weed control at 0.5 ppm / pest or weed control at 0.25 ppm: Venturia inaequalis, 240 h; for pest or weed control at 0.25 ppm: 0.25 ppm a.i.
# Procedure: After the spray coating has dried on, the plants are inoculated with an aqueous conidia suspension of the causal agent of apple scab (Venturia inaequalis) and then remain for 1 day in an incubation cabinet at approximately 20° C. and a relative atmospheric humidity of 100%.
# The plants are then placed in a greenhouse at approximately 21° C. and a relative atmospheric humidity of approximately 90%.
# The test is evaluated 10 days after the inoculation.
# [5] = test system: Alternaria solani; experiment: Alternaria test (tomatoes)/preventive; assay type: in vivo
# [6] = test system: Leptosphaeria nodorum; experiment: Leptosphaeria nodorum test (wheat)/preventive; assay type: in vivo; details: for pest or weed control at 10 ppm / pest or weed control at 40 ppm / pest or weed control at 80 ppm: Parastagonospora nodorum, 192 h, read-out: Efficacy in % found; for pest or weed control at 40 ppm: 40 ppm a.i.
# [7] = test system: Puccinia triticina; experiment: Puccinia triticina-test (wheat)/preventive; assay type: in vivo; details: preventive, evaluated 8 days after inoculation; for pest or weed control at 20 ppm: application rate 20 ppm a.i.; for Efficacy in % found: application rate 400 ppm a.i.
# [8] = test system: Fusarium nivale (var. majus); experiment: Fusarium nivale (var. majus)-test (wheat)/preventive
# Procedure: After the spray coating has been dried, the plants are slightly injured by using a sandblast and afterwards they are sprayed with a conidia suspension of Fusarium nivale (var. majus).
# The plants are placed in the greenhouse under a translucent incubation cabinet at a temperature of approximately 10° C. and a relative atmospheric humidity of approximately 100%.
# The test is evaluated 5 days after the inoculation.
# [9] = test system: Blumeria graminis f.sp. hordei; experiment: Blumeria test (barley)/preventive; assay type: in vivo; details: for pest or weed control at 10 ppm / pest or weed control at 20 ppm: Blumeria graminis, 168 h, read-out: Efficacy in % found
# [10] = test system: Pyrenophora teres; experiment: Pyrenophora teres-test (barley)/preventive; assay type: in vivo; details: preventive, evaluated 8 days after inoculation
# [11] = test system: Botrytis cinerea; experiment: Botrytis test (beans)/preventive
# Procedure: After the spray coating has dried on, 2 small pieces of agar covered with growth of Botrytis cinerea are placed on each leaf. The inoculated plants are placed in a darkened chamber at 20° C. and a relative atmospheric humidity of 100%. 2 days after the inoculation, the size of the lesions on the leaves is evaluated.
# [12] = Phytophthora infestans, 72 h, read-out: Efficacy in % found
# [13] = Zymoseptoria tritici, 504 h, application rate 10 ppm a.i., read-out: Efficacy in % found
# [14] = read-out: Efficacy in % found, Table 2b
# [15] = Alternaria solani, 72 h, Table 3a, 0.5 ppm a.i., read-out: Efficacy in % found
# [16] = Alternaria solani, 72 h, Table 3b, read-out: Efficacy in % found
# [17] = Alternaria solani, 72 h, Table 3b, 0.5 ppm, read-out: Efficacy in % found
# [18] = application rate 10 ppm, wheat, preventive, evaluated 8 days after inoculation
# [19] = Zymoseptoria tritici, 504 h, application rate 20 ppm a.i., read-out: Efficacy in % found
# [20] = Puccinia triticina, 192 h, read-out: Efficacy in % found
molecule,measurement,setting,value
"CC(C)c1ccccc1CN(C(=O)c1c(C(F)F)nn(C)c1F)C1CC1 [A1, N-cyclopropyl-3-(difluoromethyl)-5-fluoro-N-(2-isopropylbenzyl)-1-methyl-1H-pyrazole-4-carboxamide]",pest or weed control at 0.25 ppm,[1]; [12],0%
same,pest or weed control at 100 ppm,[1]; [12],0%
same,pest or weed control at 0.25 ppm,[2]; Table 4a,19%
same,pest or weed control at 0.5 ppm,"[2]; Table 4a, 0.5 ppm a.i.",69%
same,pest or weed control at 0.25 ppm,[2]; Table 4b,48%
same,pest or weed control at 0.25 ppm,[2]; Table 4c,21%
same,pest or weed control at 10 ppm,[3]; [13],50%
same,pest or weed control at 0.5 ppm,"[4]; read-out: Efficacy in % found, Table 2a, 0.5 ppm a.i.",57%
same,pest or weed control at 0.25 ppm,[4]; [14],31%
same,pest or weed control at 0.25 ppm,"[4]; read-out: Efficacy in % found, Table 2c",0%
same,pest or weed control at 0.5 ppm,"[4]; read-out: Efficacy in % found, Table 2f, 0.5 ppm a.i.",29%
same,pest or weed control at 0.5 ppm,[5]; [15],38%
same,pest or weed control at 0.25 ppm,[5]; [16],53%
same,pest or weed control at 0.5 ppm,[5]; [17],59%
same,pest or weed control at 0.5 ppm,"[5]; Alternaria solani, 72 h, Table 3c, 0.5 ppm, read-out: Efficacy in % found",16%
same,pest or weed control at 10 ppm,"[6]; Table 9a, 10 ppm a.i.",29%
same,pest or weed control at 40 ppm,[6]; Table 9a,71%
same,pest or weed control at 10 ppm,"[6]; Table 9b, 10 ppm a.i.",0%
same,pest or weed control at 10 ppm,"[6]; Table 9c, 10 ppm a.i.",50%
same,pest or weed control at 62.5 ppm,"[7]; Puccinia triticina, 192 h, application rate 62.5 ppm a.i., read-out: Efficacy in % found",57%
same,pest or weed control at 10 ppm,"[8]; Microdochium nivale, in Triticum aestivum, 120 h, read-out: Efficacy in % found, Table 8a, 10 ppm",0%
same,pest or weed control at 40 ppm,"[8]; Microdochium nivale, in Triticum aestivum, 120 h, read-out: Efficacy in % found, Table 8a, 40 ppm",29%
"Cn1nc(C(F)F)c(C(=O)N(Cc2c(C(F)(F)F)ccc(Cl)c2F)C2CC2)c1F [A18, N-[3-chloro-2-fluoro-6-(trifluoromethyl)benzyl]-N-cyclopropyl-3-(difluoromethyl)-5-fluoro-1-methyl-1H-pyrazole-4-carboxamide]",pest or weed control at 0.25 ppm,[1]; [12],0%
same,pest or weed control at 100 ppm,[1]; [12],32%
same,pest or weed control at 0.25 ppm,[2]; Table 4c,13%
same,pest or weed control at 10 ppm,[3]; [13],89%
same,pest or weed control at 0.25 ppm,[4]; [14],0%
same,pest or weed control at 10 ppm,"[9]; Table 6e, 10 ppm a.i.",29%
same,pest or weed control at 10 ppm,"[9]; Table 6d, 10 ppm",56%
same,pest or weed control at 0.5 ppm,[5]; [15],30%
same,pest or weed control at 0.25 ppm,[5]; [16],30%
same,pest or weed control at 0.5 ppm,[5]; [17],43%
same,pest or weed control at 10 ppm,[6]; [18],0%
same,pest or weed control at 10 ppm,"[7]; Puccinia triticina, 192 h, application rate 10 ppm a.i., read-out: Efficacy in % found",33%
same,pest or weed control at 10 ppm,"[8]; Microdochium nivale, in Triticum aestivum, 120 h, read-out: Efficacy in % found, Table 8b, 10 ppm a.i.",43%
"CC(C1CC1)C(O)(Cn1cncn1)c1ccc(Cl)cc1 (stereo not drawn) [B1.5, cyproconazole]",pest or weed control at 0.5 ppm,"[2]; Table 4c, 0.5 ppm a.i.",30%
same,Efficacy in % found,[10]; application rate 20 ppm a.i.,0%
same,pest or weed control at 20 ppm,[3]; [19],29%
same,pest or weed control at 20 ppm,[9]; Table 6d,78%
same,pest or weed control at 80 ppm,"[6]; Table 9a, 80 ppm a.i.",29%
same,pest or weed control at 20 ppm,[7]; [20],56%
"CC1(C(=O)Nc2ccc(O)c(Cl)c2Cl)CCCCC1 [B1.16, fenhexamid]",pest or weed control at 50 ppm,"[5]; Alternaria solani, 72 h, Table 3b, 50 ppm, read-out: Efficacy in % found",22%
same,Efficacy in % found,"[11]; Table 5a, 2.5 ppm a.i.",51%
same,Efficacy in % found,"[11]; Table 5b, 2 ppm a.i.",0%
"OC(Cc1ccccc1Cl)(Cn1nc[nH]c1=S)C1(Cl)CC1 (stereo not drawn) [B1.41, prothioconazole]",Efficacy in % found,[10]; application rate 20 ppm a.i.,14% and 22%
same,pest or weed control at 80 ppm,"[3]; Zymoseptoria tritici, 504 h, application rate 80 ppm a.i., read-out: Efficacy in % found",43%
same,pest or weed control at 2 ppm,"[5]; Alternaria solani, 72 h, Table 3c, 2 ppm, read-out: Efficacy in % found",0%
same,pest or weed control at 20 ppm,[7]; [20],11%
same,pest or weed control at 80 ppm,"[7]; Puccinia triticina, 192 h, application rate 80 ppm a.i., read-out: Efficacy in % found",11%
"O=C(NCCc1ncc(C(F)(F)F)cc1Cl)c1ccccc1C(F)(F)F [B2.6, fluopyram]",Efficacy in % found,[10]; application rate 20 ppm a.i.,57%
same,pest or weed control at 20 ppm,[3]; [19],57%
same,pest or weed control at 20 ppm,[9]; Table 6d,11%
same,pest or weed control at 80 ppm,"[6]; Table 9a, 80 ppm a.i.",0%
same,pest or weed control at 80 ppm,"[6]; application rate 80 ppm, wheat, preventive, evaluated 8 days after inoculation",0%
"Cc1nn(C)c(F)c1C(=O)Nc1ccccc1C(C)CC(C)C (stereo not drawn) [B2.20, penflufen]",Efficacy in % found,[2]; 0.5 ppm a.i.,0%
same,Efficacy in % found,[10]; application rate 20 ppm a.i.,29%
same,Efficacy in % found,[3]; application rate 20 ppm a.i.,29%
same,Efficacy in % found,"[6]; application rate 20 ppm, wheat, preventive, evaluated 8 days after inoculation",0%
same,Efficacy in % found,"[8]; Table 8a, 20 ppm",14%
same,Efficacy in % found,"[8]; Table 8b, 20 ppm a.i.",29%
"Cn1cc(C(=O)Nc2ccccc2C2CC2C2CC2)c(C(F)F)n1 (stereo not drawn) [B2.22, sedaxane]",Efficacy in % found,[10]; application rate 20 ppm a.i.,0%
same,Efficacy in % found,[3]; application rate 20 ppm a.i.,14%
same,Efficacy in % found,"[4]; Table 2d, 0.5 ppm a.i.",53%
same,Efficacy in % found,"[6]; Table 9a, 80 ppm a.i.",0%
same,Efficacy in % found,"[8]; Table 8e, 80 ppm a.i.",0%
"CO/C=C(/C(=O)OC)c1ccccc1Oc1cc(Oc2ccccc2C#N)ncn1 [B3.3, azoxystrobin]",Efficacy in % found,"[1]; Table 1b, 1 ppm a.i.",50%
same,Efficacy in % found,[2]; 2 ppm a.i.,50%
same,Efficacy in % found,[3]; application rate 10 ppm a.i.,29%
same,Efficacy in % found,"[9]; Table 6a, 10 ppm a.i.",0%
same,Efficacy in % found,"[8]; Table 8e, 40 ppm a.i.",0%
"CO/N=C(/C1=NOCCO1)c1ccccc1Oc1ncnc(Oc2ccccc2Cl)c1F [B3.12, fluoxastrobin]",pest or weed control at 2 ppm,[1]; [12],49%
same,pest or weed control at 10 ppm,[3]; [13],14%
same,pest or weed control at 0.5 ppm,"[4]; read-out: Efficacy in % found, Table 2b, 0.5 ppm a.i.",61%
same,pest or weed control at 40 ppm,[6]; Table 9a,43%
same,pest or weed control at 10 ppm,[6]; [18],0%
same,pest or weed control at 10 ppm,"[8]; Microdochium nivale, in Triticum aestivum, 120 h, read-out: Efficacy in % found, Table 8c, 10 ppm a.i.",50%
same,pest or weed control at 10 ppm,"[8]; Microdochium nivale, in Triticum aestivum, 120 h, read-out: Efficacy in % found, Table 8e, 10 ppm a.i.",43%
"Cc1ccc(C(C)NC(=O)[C@@H](NC(=O)OC(C)C)C(C)C)cc1 (stereo partly drawn) [B9.4, iprovalicarb]",Efficacy in % found,"[1]; Table 1a, 5 ppm a.i.",48%
same,Efficacy in % found,[10]; application rate 100 ppm a.i.,33%
same,Efficacy in % found,"[9]; Table 6e, 100 ppm a.i.",0%
fludioxonil [B13.3],Efficacy in % found,"[9]; Table 6e, 100 ppm a.i.",0%
same,Efficacy in % found,"[9]; Table 6f, 400 ppm a.i.",13%
same,Efficacy in % found,"[11]; Table 5a, 2.5 ppm a.i.",53%
same,Efficacy in % found,"[11]; Table 5b, 0.5 ppm a.i.",0%
same,Efficacy in % found,[7],0%
metalaxyl [B12.9],Efficacy in % found,"[1]; Table 1a, 5 ppm a.i.",18%
same,Efficacy in % found,[3]; application rate 100 ppm a.i.,10%
same,Efficacy in % found,"[6]; Table 9c, 100 ppm a.i.",33%
same,Efficacy in % found,"[6]; application rate 400 ppm a.i., wheat, preventive, evaluated 8 days after inoculation",0%
same,Efficacy in % found,[7],11%
pyrimethanil [B7.7],Efficacy in % found,"[5]; Table 3b, 25 ppm",26%
same,Efficacy in % found,"[11]; Table 5b, 10 ppm a.i.",24%
same,Efficacy in % found,[7],11%
